Results reported in US11020398B2, “Amino-pyrrolopyrimidinone compounds and methods of use thereof” (ArQule, Inc., priority 2016, dated 2021).

Legend:
[1] = target: full-length activated BTK (wildtype) (Homo sapiens (Human), UniProt Q06187); assay: AlphaScreen assay, wild-type BTK; type: biochemical
Experimental: (§1) The activated BTK was frozen in 50 μl aliquots (125-150 μg/ml).
(§2) BTK activity was assayed using a PLCγ2-derived biotinylated peptide substrate (biotin-[…]-OH) and AlphaScreen™ (Amplified Luminescent Proximity Homogeneous Assay) technology. The extent of peptide phosphorylation was determined by using acceptor beads conjugated to phosphotyrosine antibody that recognized the phosphorylated peptide and donor beads conjugated to streptavidin that binds to the biotin on the peptide. Excitation of the donor beads converted ambient oxygen to excited singlet oxygen which when in close proximity to acceptor beads, reacted with acceptor beads resulting in signal amplification.
(§3) Test inhibitors and controls were prepared in 10% DMSO at 10-fold the desired final concentration and added to each well of a reaction plate (Corning 96-well half-area solid white nonbinding surface plate) in a volume of 2.5 μl. […] The plate was incubated for 120 min at room temperature and the reaction stopped by the addition of 10 μl stop/detection mixture containing 35 mM EDTA, 50 ug/ml AlphaScreen™ Streptavidin Donor beads (final concentration is 500 ng/well) and AlphaScreen™ Phospho-tyrosine (P-Tyr-100) Acceptor beads (final concentration is 500 ng/well) under green light conditions. The plate was incubated overnight at room temperature in the dark and the plates read on the BMG PolarStar Omega ([…], Gain=4000). Data were archived and analyzed with a 4-parameter fit to generate IC50 values using the CDD Vault from Collaborative Drug Discovery.

[2] = target: full-length activated BTK mutant C481S (Homo sapiens (Human), UniProt Q06187, C481S); assay: AlphaScreen assay, BTK mutant C481S; type: biochemical; details: for inhibition at 10 µM: read-out: BTK-C481S % @ 10 uM, @ 10 uM
Experimental: as §1, §2, §3

Sequence of full-length activated BTK mutant C481S (Q06187 whole entry C481S): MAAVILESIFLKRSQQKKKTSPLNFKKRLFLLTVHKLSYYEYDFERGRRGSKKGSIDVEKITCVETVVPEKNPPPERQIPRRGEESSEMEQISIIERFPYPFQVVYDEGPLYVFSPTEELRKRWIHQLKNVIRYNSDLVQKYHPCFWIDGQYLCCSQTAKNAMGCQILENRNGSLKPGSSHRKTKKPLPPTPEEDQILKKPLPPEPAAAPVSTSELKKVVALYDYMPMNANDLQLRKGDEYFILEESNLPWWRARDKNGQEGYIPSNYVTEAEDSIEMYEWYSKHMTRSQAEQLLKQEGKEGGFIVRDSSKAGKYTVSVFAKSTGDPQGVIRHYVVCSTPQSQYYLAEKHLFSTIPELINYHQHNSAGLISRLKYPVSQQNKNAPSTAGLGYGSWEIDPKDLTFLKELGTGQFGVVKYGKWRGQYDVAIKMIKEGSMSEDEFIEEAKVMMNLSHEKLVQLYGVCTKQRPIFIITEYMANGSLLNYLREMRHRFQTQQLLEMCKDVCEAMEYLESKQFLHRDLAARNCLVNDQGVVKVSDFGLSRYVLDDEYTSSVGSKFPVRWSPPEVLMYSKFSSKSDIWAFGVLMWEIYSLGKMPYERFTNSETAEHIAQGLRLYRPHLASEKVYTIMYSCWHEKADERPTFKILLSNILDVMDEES
Sequence of full-length activated BTK (wildtype) (Q06187 whole entry): as the sequence (Q06187 whole entry C481S) above, with S481C counted along it

| inhibition at 10 µM ([1]; read-out: BTK % @ 10 uM, @ 10 uM) [%] | inhibition at 10 µM [2] [%] | IC50 [1] [nM] | IC50 [2] [nM] | Compound |
| --- | --- | --- | --- | --- |
| 77 | 50 |  |  | Cn1cc(NC(=O)c2ccc(C(=O)c3c[nH]c4ncnc(N[C@@H]5CC[C@@H](CO)OC5)c34)cc2)cn1 [Compound I-633, 4-(4-(((3R,6S)-6-(hydroxymethyl)tetrahydro-2H-pyran-3-yl)amino)-7H-pyrrolo[2,3-d]pyrimidine-5-carbonyl)-N-(1-methyl-1H-pyrazol-4-yl)benzamide] |
|  |  | 142 | 228 | N#Cc1cccc(NC(=O)c2ccc(C(=O)c3c[nH]c4ncnc(N[C@@H]5CC[C@@H](CO)OC5)c34)c(Cl)c2)c1 [Compound I-614, 3-chloro-N-(3-cyanophenyl)-4-(4-(((3R,6S)-6-(hydroxymethyl)tetrahydro-2H-pyran-3-yl)amino)-7H-pyrrolo[2,3-d]pyrimidine-5-carbonyl)benzamide] |
|  |  | 19.8 | 137 | O=C(c1ccc(Oc2ccccc2)cc1Cl)c1c[nH]c2ncnc(NC[C@H]3CN[C@H](CO)C3)c12 [Compound I-369e, (2-chloro-4-phenoxyphenyl)(4-((((3R,5S)-5-(hydroxymethyl)pyrrolidin-3-yl)methyl)amino)-7H-pyrrolo[2,3-d]pyrimidin-5-yl)methanone] |
|  |  | 777 | 664 | O=C(c1cc(C(=O)N2CCN(c3ccccn3)CC2)ccc1Cl)c1c[nH]c2ncnc(N[C@@H]3CC[C@@H](CO)OC3)c12 [Compound I-627, (4-chloro-3-(4-(((3R,6S)-6-(hydroxymethyl)tetrahydro-2H-pyran-3-yl)amino)-7H-pyrrolo[2,3-d]pyrimidine-5-carbonyl)phenyl)(4-(pyridin-2-yl)piperazin-1-yl)methanone] |
|  |  | 164 | 757 | O=C(NCCN1CCOCC1)c1ccc(Cl)c(C(=O)c2c[nH]c3ncnc(N[C@@H]4CC[C@@H](CO)OC4)c23)c1 [Compound I-626, 4-chloro-3-(4-(((3R,6S)-6-(hydroxymethyl)tetrahydro-2H-pyran-3-yl)amino)-7H-pyrrolo[2,3-d]pyrimidine-5-carbonyl)-N-(2-morpholinoethyl) benzamide] |
|  | 70 | 598 |  | CN1CCN(C(=O)c2ccc(C(=O)c3c[nH]c4ncnc(N[C@@H]5CC[C@@H](CO)OC5)c34)c(Cl)c2)CC1 [Compound I-620, (3-chloro-4-(4-(((3R,6S)-6-(hydroxymethyl)tetrahydro-2H-pyran-3-yl)amino)-7H-pyrrolo[2,3-d]pyrimidine-5-carbonyl)phenyl)(4-methylpiperazin-1-yl)methanone] |
|  |  | 8.19 | 187 | O=C(Nc1ccccc1)Nc1ccc(Cl)c(C(=O)c2c[nH]c3ncnc(N[C@@H]4CC[C@@H](CO)OC4)c23)c1 [Compound I-608, 1-(4-chloro-3-(4-(((3R,6S)-6-(hydroxymethyl)tetrahydro-2H-pyran-3-yl)amino)-7H-pyrrolo[2,3-d]pyrimidine-5-carbonyl)phenyl)-3-phenylurea] |
|  |  | 69.5 | 203 | O=C(c1ccc(NC(=O)C2(c3ccccc3)CC2)cc1Cl)c1c[nH]c2ncnc(N[C@@H]3CC[C@@H](CO)OC3)c12 [Compound I-640, N-(3-chloro-4-(4-(((3R,6S)-6-(hydroxymethyl)tetrahydro-2H-pyran-3-yl)amino)-7H-pyrrolo[2,3-d]pyrimidine-5-carbonyl)phenyl)-1-phenylcyclopropane-1-carboxamide] |
|  |  | 466 | 1770 | O=C(c1cc(NC(=O)C2CCOCC2)ccc1Cl)c1c[nH]c2ncnc(N[C@@H]3CC[C@@H](CO)OC3)c12 [Compound I-603, N-(4-chloro-3-(4-(((3R,6S)-6-(hydroxymethyl)tetrahydro-2H-pyran-3-yl)amino)-7H-pyrrolo[2,3-d]pyrimidine-5-carbonyl)phenyl)tetrahydro-2H-pyran-4-carboxamide] |
|  | 85 | 571 |  | O=C(NC1CC2(COC2)C1)c1ccc(C(=O)c2c[nH]c3ncnc(N[C@@H]4CC[C@@H](CO)OC4)c23)c(Cl)c1 [Compound I-621, 3-chloro-4-(4-(((3R,6S)-6-(hydroxymethyl)tetrahydro-2H-pyran-3-yl)amino)-7H-pyrrolo[2,3-d]pyrimidine-5-carbonyl)-N-(2-oxaspiro[3.3]heptan-6-yl)benzamide] |
|  |  | 123 | 254 | CS(=O)(=O)N1C[C@H](Nc2ncnc3[nH]cc(C(=O)c4ccc(Oc5ccccc5)cc4Cl)c23)C[C@H]1CO [Compound I-656, (2-chloro-4-phenoxyphenyl)(4-(((3R,5S)-5-(hydroxymethyl)-1-(methylsulfonyl)pyrrolidin-3-yl)amino)-7H-pyrrolo[2,3-d]pyrimidin-5-yl)methanone] |
|  |  | 52.1 | 177 | O=C(Nc1ccccc1)c1ccc(Cl)c(C(=O)c2c[nH]c3ncnc(N[C@@H]4CC[C@@H](CO)OC4)c23)c1 [Compound I-631, 4-chloro-3-(4-(((3R,6S)-6-(hydroxymethyl)tetrahydro-2H-pyran-3-yl)amino)-7H-pyrrolo[2,3-d]pyrimidine-5-carbonyl)-N-phenylbenzamide] |
|  |  | 376 | 942 | Cn1cc(NC(=O)c2ccc(C(=O)c3c[nH]c4ncnc(N[C@@H]5CC[C@@H](CO)OC5)c34)c(Cl)c2)cn1 [Compound I-619, 3-chloro-4-(4-(((3R,6S)-6-(hydroxymethyl)tetrahydro-2H-pyran-3-yl)amino)-7H-pyrrolo[2,3-d]pyrimidine-5-carbonyl)-N-(1-methyl-1H-pyrazol-4-yl)benzamide] |
|  |  | 467 | 1860 | O=C(c1cc(NC(=O)C2(c3ccccc3)CC2)ccc1Cl)c1c[nH]c2ncnc(N[C@@H]3CC[C@@H](CO)OC3)c12 [Compound I-605, N-(4-chloro-3-(4-(((3R,6S)-6-(hydroxymethyl)tetrahydro-2H-pyran-3-yl)amino)-7H-pyrrolo[2,3-d]pyrimidine-5-carbonyl)phenyl)-1-phenylcyclopropane-1-carboxamide] |
|  | 82 | 959 |  | COCCOc1cccc(C(=O)c2c[nH]c3ncnc(N[C@@H]4CC[C@@H](CO)OC4)c23)c1 [Compound I-649, (4-(((3R,6S)-6-(hydroxymethyl)tetrahydro-2H-pyran-3-yl)amino)-7H-pyrrolo[2,3-d]pyrimidin-5-yl)(3-(2-methoxyethoxy)phenyl)methanone] |
|  |  | 1.07 | 59.4 | CN1[C@H](CO)CCC[C@@H]1CNc1ncnc2[nH]cc(C(=O)c3ccc(Oc4ccccc4)cc3Cl)c12 (racemic) [Compound I-360e, racemic-cis-(2-chloro-4-phenoxyphenyl)(4-(((6-(hydroxymethyl)-1-methylpiperidin-2-yl)methyl)amino)-7H-pyrrolo[2,3-d]pyrimidin-5-yl)methanone] |
|  |  | 35.6 | 44.5 | O=C(c1ccc(Oc2ccccc2)cc1Cl)c1c[nH]c2ncnc(NC[C@H]3CC[C@@H](CO)O3)c12 [Compound I-362e, (2-chloro-4-phenoxyphenyl)(4-((((2R,5S)-5-(hydroxymethyl)tetrahydrofuran-2-yl)methyl)amino)-7H-pyrrolo[2,3-d]pyrimidin-5-yl)methanone] |
|  |  | 17.2 | 105 | CC#CC(=O)N1CCCC(Nc2ncnc3[nH]cc(C(=O)c4ccc(Oc5ccccc5)cc4Cl)c23)C1 (racemic) [Compound I-324r, (racemic)-1-(3-((5-(2-chloro-4-phenoxybenzoyl)-7H-pyrrolo[2,3-d]pyrimidin-4-yl)amino)piperidin-1-yl)but-2-yn-1-one] |
